Calls of active or inactive are those of the source. No cut-off for these calls is given here.
Experiments:
[1] = Selectivity ratio of IC50 for human MCF7 cells to IC50 for human procaspase-3 over-expressing U937 cells; type: functional
MCF7 = test: Antiproliferative activity against human MCF7 cells after 24 hrs by CCK-8 assay; type: functional, cell-based; conditions: MCF7, 24 h
U-937 [2] = test: Antiproliferative activity against human procaspase-3 over-expressing U937 cells after 24 hrs by CCK-8 assay; type: functional, cell-based; conditions: U-937, 24 h
[3] = Intrinsic clearance in rat liver microsomes in presence of NADPH by LC-MS analysis; type: ADME, Microsome; conditions: read-out: CLH
[4] = Intrinsic clearance in human liver microsomes in presence of NADPH by LC-MS analysis; type: ADME, Microsome; conditions: read-out: CLH
[5] = Half life in human liver microsomes in presence of NADPH by LC-MS analysis; type: ADME, Microsome
[6] = Half life in rat liver microsomes in presence of NADPH by LC-MS analysis; type: ADME, Microsome
[7] = Half life in mouse liver microsomes in presence of NADPH by LC-MS analysis; type: ADME, Microsome
[8] = Intrinsic clearance in mouse liver microsomes in presence of NADPH by LC-MS analysis; type: ADME, Microsome; conditions: read-out: CLH
U-937 [9] = test: Induction of apoptosis in human U937 cells assessed as caspase-3 activity at 30 uM using Ac-DEVD-AFC as substrate preincubated for 16 hrs followed by substrate addition and measured after 60 mins by fluorescence assay (reference value: 7+/- 1%); type: functional
Danio rerio [10] = species: Danio rerio; test: Induction of apoptosis in zebrafish AB embryos assessed as accumulation of dying cells in head at 40 to 60 uM after 24 hrs post fertilization by acridine orange staining-based fluorescence microscopic analysis; type: functional, organism-based
[11] = Toxicity in zebrafish AB embryos at 5 to 20 uM measured at 24 to 72 hrs post fertilization by stereo microscopic analysis; set-up: species or system Danio rerio; conditions: in vivo
U-937 [12] = test: Induction of apoptosis in human U937 cells assessed as early apoptotic cells at 2.6 uM after 48 hrs by Annexin V-FITC/propidium iodide staining-based flow cytometric analysis (reference value: 6.16%); type: functional
U-937 [13] = test: Induction of apoptosis in human U937 cells assessed as early apoptotic cells at 5.2 uM after 48 hrs by Annexin V-FITC/propidium iodide staining-based flow cytometric analysis (reference value: 6.16%); type: functional
Danio rerio [14] = species: Danio rerio; test: Induction of apoptosis in zebrafish AB embryos assessed as accumulation of dying cells in cranial neural crest at 40 to 60 uM after 24 hrs post fertilization by acridine orange staining-based fluorescence microscopic analysis; type: functional, organism-based
[15] = Toxicity in zebrafish AB embryos assessed as induction of mortality at 40 uM after 72 hrs post fertilization by stereo microscopic analysis; set-up: species or system Danio rerio; conditions: in vivo
U-937 [16] = test: Induction of apoptosis in human U937 cells assessed as late apoptotic cells at 2.6 uM after 24 hrs by Annexin V-FITC/propidium iodide staining-based flow cytometric analysis (reference value: 3.27%); type: functional
U-937 [17] = test: Induction of apoptosis in human U937 cells assessed as late apoptotic cells at 5.2 uM after 24 hrs by Annexin V-FITC/propidium iodide staining-based flow cytometric analysis (reference value: 3.27%); type: functional
Caspase-3 (Homo sapiens) = target: T1, Caspase-3 (Homo sapiens) (UniProt P42574); test: Activation of procaspase-3 (unknown origin) at 10 uM using Ac-DEVD-AFC as substrate preincubated for 4 hrs followed by substrate addition and measured after 5 mins by fluorescence assay relative to control
T1 sequence (whole entry): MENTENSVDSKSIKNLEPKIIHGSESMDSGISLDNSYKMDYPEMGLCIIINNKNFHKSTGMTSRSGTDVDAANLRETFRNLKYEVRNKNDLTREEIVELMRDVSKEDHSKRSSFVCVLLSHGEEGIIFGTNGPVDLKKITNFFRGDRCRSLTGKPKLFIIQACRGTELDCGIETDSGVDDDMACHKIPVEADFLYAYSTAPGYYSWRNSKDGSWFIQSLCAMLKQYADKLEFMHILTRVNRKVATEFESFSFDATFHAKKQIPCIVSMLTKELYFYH

U-937 [18] = test: Induction of apoptosis in human U937 cells assessed as early apoptotic cells at 5.2 uM after 24 hrs by Annexin V-FITC/propidium iodide staining-based flow cytometric analysis (reference value: 4.88%); type: functional
Danio rerio [19] = species: Danio rerio; test: Induction of apoptosis in zebrafish AB embryos assessed as increase in bax mRNA expression at 40 to 60 uM after 24 hrs post fertilization by RT-PCR analysis; type: functional, organism-based
U-937 [20] = test: Induction of apoptosis in human U937 cells assessed as late apoptotic cells at 5.2 uM after 48 hrs by Annexin V-FITC/propidium iodide staining-based flow cytometric analysis (reference value: 3.89%); type: functional
U-937 [21] = test: Induction of apoptosis in human U937 cells assessed as late apoptotic cells at 2.6 uM after 48 hrs by Annexin V-FITC/propidium iodide staining-based flow cytometric analysis (reference value: 3.89%); type: functional
U-937 [22] = test: Induction of apoptosis in human U937 cells assessed as early apoptotic cells at 2.6 uM after 24 hrs by Annexin V-FITC/propidium iodide staining-based flow cytometric analysis (reference value: 4.88%); type: functional

Row | Compound | Ratio IC50 [1] | IC50 (MCF7) [µM] | IC50 (U-937 [2]) [µM] | Activity (U-937 [9]) [%] | further results
1 | CN(C)Cc1ccc2nc(NC(=O)N/N=C/c3ccccn3)sc2c1 | 1.6 | > 40 | 23.2 | – | –
2 | O=C(c1ccc(F)cc1)C1CCN(CCn2c(=O)[nH]c3ccccc3c2=O)CC1 [KETANSERIN] | – | – | – | – | CLint scaled [3]: 173 mL/min/kg; CLint scaled [4]: 48.2 mL/min/kg; half-life [5]: 36.1 min; half-life [6]: 14.4 min; half-life [7]: 20.5 min; CLint scaled [8]: 267 mL/min/kg
3 | C/C(=N\NC(=O)Nc1nc2ccc(CN(C)C)cc2s1)c1cnccn1 | – | > 40 | > 40 | – | –
4 | CN(C)Cc1ccc(NC(=O)NN=C(c2ccccc2)c2ccccc2)cc1 | <1 | 12.1 | > 25 | 28 | –
5 | CCN(CC)Cc1ccc2nc(NC(=O)N/N=C(\C)c3ccccn3)sc2c1 | 2.6 | > 40 | 15.6 | – | –
6 | CC1CCN(Cc2ccc(NC(=O)N/N=C/c3ccccn3)cc2)CC1 | – | > 40 | > 40 | – | –
7 | CCN(CC)Cc1ccc2nc(NC(=O)N/N=C(\C)c3cnccn3)sc2c1 | – | > 40 | > 40 | – | –
8 | CCN(CC)Cc1ccc(NC(=O)NN=C(c2ccccc2)c2ccccc2)cc1 | <1 | 13.1 | > 25 | 20 | –
9 | CCN(CC)Cc1ccc2nc(NC(=O)N/N=C/c3ccccn3)sc2c1 | 1.6 | > 40 | 24.8 | – | –
10 | C/C(=N\NC(=O)Nc1nc2ccc(CN(C)C)cc2s1)c1ccccn1 | 2 | > 40 | 20.1 | 68 | –
11 | CN(C)Cc1ccc2nc(NC(=O)NN=C(c3ccccn3)c3ccccn3)sc2c1 | 5.1 | > 40 | 7.8 | 104 | –
12 | C=CCc1cccc(/C=N/NC(=O)CN2CCN(Cc3ccccc3)CC2)c1O [PAC-1] | 6.6 | > 40 | 6 | 100 | –
13 | CC1CCN(Cc2ccc(NC(=O)NN=C(c3ccccc3)c3ccccc3)cc2)CC1 | <1 | 13.3 | > 25 | 58 | –
14 | CC1CCN(Cc2ccc3nc(NC(=O)N/N=C/c4ccccn4)sc3c2)CC1 | 1.6 | > 40 | 21.5 | – | –
15 | C/C(=N\NC(=O)Nc1ccc(CN2CCC(C)CC2)cc1)c1ccccn1 | – | > 40 | > 40 | – | –
16 | C/C(=N\NC(=O)Nc1nc2ccc(CN3CCC(C)CC3)cc2s1)c1ccccc1 | – | > 40 | > 40 | – | –
17 | C/C(=N\NC(=O)Nc1nc2ccc(CN3CCC(C)CC3)cc2s1)c1cnccn1 | <1 | 11.8 | > 40 | – | –
18 | CN(C)Cc1ccc(NC(=O)NN=C(c2ccccn2)c2ccccn2)cc1 | – | > 40 | > 40 | – | –
19 | CN(C)Cc1ccc(NC(=O)N/N=C/c2ccccn2)cc1 | – | > 40 | > 40 | – | –
20 | CCN(CC)Cc1ccc2nc(NC(=O)N/N=C(\C)c3ccc(F)cc3)sc2c1 | <1 | 12.3 | > 40 | 40 | –
21 | CCN(CC)Cc1ccc2nc(NC(=O)NN=C(c3ccccn3)c3ccccn3)sc2c1 | 4.3 | > 40 | 9.1 | 119 | –
22 | CC1CCN(Cc2ccc(NC(=O)NN=C(c3ccccn3)c3ccccn3)cc2)CC1 | – | > 40 | > 40 | – | –
23 | C/C(=N\NC(=O)Nc1ccc(CN2CCC(C)CC2)cc1)c1cnccn1 | – | > 40 | > 40 | – | –
24 | C/C(=N\NC(=O)Nc1nc2ccc(CN3CCC(C)CC3)cc2s1)c1ccccn1 | 2.3 | 12.4 | 5.2 | 99 | Activity (Danio rerio [10]): Active; CLint scaled [3]: 26 mL/min/kg; Activity [11]: Non-Toxic; CLint scaled [4]: 22.3 mL/min/kg; half-life [5]: 77.9 min; Activity (U-937 [12]): 19.59%; Activity (U-937 [13]): 28.06%; half-life [6]: 95.5 min; Activity (Danio rerio [14]): Active; Activity [15]: Toxic; Activity (U-937 [16]): 6.3%; Activity (U-937 [17]): 8.15%; Activity (Caspase-3 (Homo sapiens)): 77.8%; Activity (U-937 [18]): 19.79%; Activity (Danio rerio [19]): Active; Activity (U-937 [20]): 18.7%; half-life [7]: 53.6 min; CLint scaled [8]: 102 mL/min/kg; Activity (U-937 [21]): 9.17%; Activity (U-937 [22]): 16.16%
25 | CCN(CC)Cc1ccc(NC(=O)N/N=C(\C)c2ccccn2)cc1 | – | > 40 | > 40 | – | –
26 | CCN(CC)Cc1ccc(NC(=O)NN=C(c2ccccn2)c2ccccn2)cc1 | – | > 40 | > 40 | – | –
